# Experimental data taken from ChEMBL document CHEMBL6109155, “Discovery of Phenylacylpiperidine as Novel sEH Inhibitors through Scaffold Hopping of Natural Stilbene” (J Med Chem, 2025).
# Tested on: Mus musculus
# Assay: Anti-inflammatory activity in CD-1 mouse model of cerulein-induced acute pancreatitis assessed as increase in ratio of plasma 14,15-EET/DHET level at 10 mg/kg, ip drug administered at 30 mins and 2.5 hrs post-first cerulein injection and measured after 6 hrs post-first cerulein injection (reference value: 69.8 to 77.3 %)
# Type: functional
# Conditions: time 3.5-5.5 hrs
structure (smiles),measurement,value
COc1cc(CC(=O)N2CCC(NC(=O)NCc3ccc(OC(F)(F)F)cc3)CC2)cc(OC)c1,Activity,905%
